Measured values as given in US20130121994A1, “TRIAZOLOPYRIDINE DERIVATIVES” (BAYER INTELLECTUAL PROPERTY GMBH, priority 2009, published 2013).

Molecular target: T1, human kinase Mps-1 (Homo sapiens, UniProt P33981)
T1 construct: N-terminally GST-tagged human full length recombinant Mps-1 kinase; GST (N); purchased Invitrogen, Karslruhe, Germany PV4071
T1 sequence (P33981 1-857): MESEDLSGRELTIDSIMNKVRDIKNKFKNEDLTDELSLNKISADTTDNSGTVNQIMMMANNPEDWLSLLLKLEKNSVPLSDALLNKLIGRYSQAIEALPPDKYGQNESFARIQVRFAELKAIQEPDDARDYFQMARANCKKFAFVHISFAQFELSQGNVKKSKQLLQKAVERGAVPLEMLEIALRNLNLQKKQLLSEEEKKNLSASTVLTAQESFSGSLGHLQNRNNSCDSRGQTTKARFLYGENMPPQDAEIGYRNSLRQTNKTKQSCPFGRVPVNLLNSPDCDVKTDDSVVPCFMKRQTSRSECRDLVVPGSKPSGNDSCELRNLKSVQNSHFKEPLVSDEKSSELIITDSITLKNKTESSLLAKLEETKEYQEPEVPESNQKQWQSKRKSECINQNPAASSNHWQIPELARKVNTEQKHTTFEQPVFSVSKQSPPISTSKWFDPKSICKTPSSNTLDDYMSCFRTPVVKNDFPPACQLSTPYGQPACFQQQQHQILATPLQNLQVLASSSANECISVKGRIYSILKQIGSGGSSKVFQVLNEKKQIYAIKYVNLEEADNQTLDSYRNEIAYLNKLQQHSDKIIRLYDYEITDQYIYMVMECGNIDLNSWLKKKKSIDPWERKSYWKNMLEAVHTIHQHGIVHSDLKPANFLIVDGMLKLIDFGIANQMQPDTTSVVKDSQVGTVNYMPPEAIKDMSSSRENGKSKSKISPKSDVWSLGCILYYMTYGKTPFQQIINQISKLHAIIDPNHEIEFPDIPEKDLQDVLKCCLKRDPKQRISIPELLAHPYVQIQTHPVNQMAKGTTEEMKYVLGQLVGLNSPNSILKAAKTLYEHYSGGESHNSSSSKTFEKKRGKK
Assay: Mps-1 kinase assay (HTRF)
Format: biochemical
Experimental: The human kinase Mps-1 phosphorylates a biotinylated substrate peptide. Detection of the phosphorylated product is achieved by homogenous time-resolved fluorescence resonance energy transfer (HTRF) from Europium-labelled anti-phospho-Serine/Threonine antibody as donor to streptavidin labelled with cross-linked allophycocyanin (SA-XLent) as acceptor. Compounds are tested for their inhibition of the kinase activity.
N-terminally GST-tagged human full length recombinant Mps-1 kinase (purchased from Invitrogen, Karslruhe, Germany, cat. no PV4071) was used. As substrate for the kinase reaction a biotinylated peptide of the amino-acid sequence […] (C-terminus in amide form, purchased from Biosynthan GmbH, Berlin) was used.
The concentration of Mps-1 in the assay was adjusted to the activity of the enzyme lot and was chosen appropriate to have the assay in the linear range, typical enzyme concentrations were in the range of about 1 nM (final conc. in the 5 μl assay volume).
The resulting mixture was incubated 1 h at 22° C. to allow the binding of the phosphorylated peptide to the anti-phospho(Ser/Thr)-Europium-antibody. Subsequently the amount of phosphorylated substrate was evaluated by measurement of the resonance energy transfer from the Europium-labelled anti-phospho(Ser/Thr) antibody to the Streptavidin-XLent.

IC50	SMILES
0.00672 µM	COC(C)CNC(=O)c1cccc(-c2ccc3nc(Nc4ccccc4C#N)nn3c2)c1 (racemic) [Example 11.053, rac-3-{2-[(2-cyanophenyl)amino][1,2,4]triazolo[1,5-a]pyridin-6-yl}-N-(2-methoxypropyl)benzamide]
0.017 µM	COc1cc(C#N)ccc1Nc1nc2ccc(-c3cc(C)c(O)c(C)c3)cn2n1 [Example 1.1, 4-{[6-(4-hydroxy-3,5-dimethylphenyl)[1,2,4]triazolo[1,5-a]pyridin-2-yl]amino}-3-methoxybenzonitrile]
0.18 µM	COc1ccc(Nc2nc3ccc(-c4cc(C)c(O)c(C)c4)cn3n2)c(OC)c1 [Example 1.2, 4-{2-[(2,4-dimethoxyphenyl)amino] [1,2,4]triazolo[1,5-a]pyridin-6-yl}-2,6-dimethylphenol]
2.7 µM	Cc1cc(-c2ccc3nc(Nc4cncnc4)nn3c2)cc(C)c1O [Example 1.4, 2,6-dimethyl-4-[2-(pyrimidin-5-ylamino)[1,2,4]triazolo [1,5-a]pyridin-6-yl]phenol]
0.15 µM	COc1ccc(F)cc1Nc1nc2ccc(-c3cc(C)c(O)c(C)c3)cn2n1 [Example 1.6, 4-{2-[(5-fluoro-2-methoxyphenyl)amino] [1,2,4]triazolo[1,5-a]pyridin-6-yl}-2,6-dimethylphenol]
0.32 µM	Cc1cc(-c2ccc3nc(Nc4cccnc4)nn3c2)cc(C)c1O [Example 1.8, 2,6-dimethyl-4-[2-(pyridin-3-ylamino)[1,2,4]triazolo [1,5-a]pyridin-6-yl]phenol]
0.14 µM	Cc1cc(-c2ccc3nc(Nc4ccccc4OC(F)(F)F)nn3c2)cc(C)c1O [Example 1.10, 2,6-dimethyl-4-(2-{[2-(trifluoromethoxy)phenyl]amino}[1,2,4]tri-azolo[1,5-a]pyridin-6-yl)phenol]
0.092 µM	CCOc1ccccc1Nc1nc2ccc(-c3cc(C)c(O)c(C)c3)cn2n1 [Example 1.12, 4-{2-[(2-ethoxyphenyl)amino] [1,2,4]triazolo[1,5-a]pyridin-6-yl}-2,6-dimethylphenol]
0.64 µM	COc1ccc(C#N)cc1Nc1nc2ccc(-c3cc(C)c(O)c(C)c3)cn2n1 [Example 1.13, 3-{[6-(4-hydroxy-3,5-dimethylphenyl)[1,2,4]triazolo[1,5-a]pyridin-2-yl]amino}-4-methoxybenzonitrile]
0.16 µM	COc1cccnc1Nc1nc2ccc(-c3cc(C)c(O)c(C)c3)cn2n1 [Example 1.14, 4-{2-[(3-methoxypyridin-2-yl)amino][1,2,4]tri-azolo[1,5-a]pyridin-6-yl}-2,6-dimethylphenol]
0.023 µM	CNC(=O)c1ccc(Nc2nc3ccc(-c4cc(C)c(O)c(C)c4)cn3n2)cc1 [Example 1.15, 4-{[6-(4-hydroxy-3,5-dimethylphenyl)[1,2,4]triazolo[1,5-a]pyridin-2-yl]amino}-N-methylbenzamide]
0.28 µM	CCN(CC)C(=O)c1ccc(Nc2nc3ccc(-c4cc(C)c(O)c(C)c4)cn3n2)c(OC)c1 [Example 1.16, N,N-Diethyl-4-[6-(4-hydroxy-3,5-dimethyl-phenyl)-[1,2,4]triazolo[1,5-a]pyridin-2-ylamino]-3-methoxy-benzamide]
0.47 µM	COc1ccc(F)cc1Nc1nc2ccc(-c3cccc(NC(C)=O)c3)cn2n1 [Example 2.2, N-(3-{2-[(5-fluoro-2-methoxyphenyl)amino] [1,2,4]triazolo[1,5-a]pyridin-6-yl}phenyl)acetamide]
3.1 µM	CC(=O)Nc1cccc(-c2ccc3nc(Nc4cccnc4)nn3c2)c1 [Example 2.4, N-{3-[2-(pyridin-3-ylamino)[1,2,4]triazolo [1,5-a]pyridin-6-yl]phenyl}acetamide]
0.77 µM	CC(=O)Nc1cccc(-c2ccc3nc(Nc4ccc(S(C)(=O)=O)cc4)nn3c2)c1 [Example 2.5, N-[3-(2-{[4-(methylsulfonyl)phen-yl]amino}[1,2,4]triazolo [1,5-a]pyridin-6-yl)phenyl]acetamide]
0.34 µM	CC(=O)Nc1cccc(-c2ccc3nc(Nc4ccccc4OC(F)(F)F)nn3c2)c1 [Example 2.6, N-[3-(2-{[2-(trifluoromethoxy)phenyl]amino}[1,2,4]tri-azolo[1,5-a]pyridin-6-yl)phenyl]acetamide]
3.3 µM	CC(=O)Nc1cccc(-c2ccc3nc(Nc4ccc(OC(F)(F)F)cc4)nn3c2)c1 [Example 2.7, N-[3-(2-{[4-(trifluoromethoxy)phenyl]amino}[1,2,4]tri-azolo[1,5-a]pyridin-6-yl)phenyl]acetamide]
1 µM	CC(=O)Nc1cccc(-c2ccc3nc(Nc4ccc(C#N)cc4)nn3c2)c1 [Example 2.8, N-(3-{2-[(4-cyanophenyl)amino] [1,2,4]triazolo[1,5-a]pyridin-6-yl}phenyl)acetamide]
1.8 µM	CC(=O)Nc1cccc(-c2ccc3nc(Nc4ccc(C(C)C)cc4)nn3c2)c1 [Example 2.9, N-[3-(2-{[4-(propan-2-yl)phenyl]amino}[1,2,4]triazolo[1,5-a]pyridin-6-yl)phenyl]acetamide]
0.13 µM	CCOc1ccccc1Nc1nc2ccc(-c3cccc(NC(C)=O)c3)cn2n1 [Example 2.10, N-(3-{2-[(2-ethoxyphenyl)amino] [1,2,4]triazolo[1,5-a]pyridin-6-yl}phenyl)acetamide]
3.5 µM	COc1cccnc1Nc1nc2ccc(-c3cccc(NC(C)=O)c3)cn2n1 [Example 2.11, N-(3-{2-[(3-methoxypyridin-2-yl)amino][1,2,4]triazolo [1,5-a]pyridin-6-yl}phenyl)acetamide]
0.2 µM	COc1cc(C#N)ccc1Nc1nc2ccc(-c3cccc(NC(C)=O)c3)cn2n1 [Example 2.12, N-(3-{2-[(4-cyano-2-methoxyphenyl)amino] [1,2,4]triazolo[1,5-a]pyridin-6-yl}phenyl)acetamide]
0.86 µM	N#Cc1ccccc1Nc1nc2ccc(-c3ccccc3)cn2n1 [Example 3.1, 2-[(6-phenyl[1,2,4]triazolo[1,5-a]pyridin-2-yl)amino]benzonitrile]
0.052 µM	N#Cc1ccccc1Nc1nc2ccc(-c3cccc(CO)c3)cn2n1 [Example 3.2, 2-({6-[3-(hydroxymethyl)phen-yl][1,2,4]triazolo[1,5-a]pyridin-2-yl}amino)benzonitrile]
0.63 µM	Cc1cccc(-c2ccc3nc(Nc4ccccc4C#N)nn3c2)c1 [Example 3.3, 2-{[6-(3-methylphenyl)[1,2,4]triazolo[1,5-a]pyridin-2-yl]amino}benzonitrile]
6.1 µM	CC(=O)Nc1ccccc1-c1ccc2nc(Nc3ccccc3C#N)nn2c1 [Example 3.4, N-(2-{2-[(2-cyanophenyl)amino] [1,2,4]triazolo[1,5-a]pyridin-6-yl}phenyl)acetamide]
0.24 µM	CS(=O)(=O)Nc1cccc(-c2ccc3nc(Nc4ccccc4C#N)nn3c2)c1 [Example 3.5, N-(3-{2-[(2-cyanophenyl)amino] [1,2,4]triazolo[1,5-a]pyridin-6-yl}phenyl)methane-sulfonamide]
0.94 µM	N#Cc1ccccc1Nc1nc2ccc(-c3ccc4cc[nH]c4c3)cn2n1 [Example 3.6, 2-{[6-(1H-indol-6-yl)[1,2,4]triazolo[1,5-a]pyridin-2-yl]amino}benzonitrile]
0.14 µM	N#Cc1ccccc1Nc1nc2ccc(-c3ccc(C(N)=O)cc3)cn2n1 [Example 3.7, 4-{2-[(2-cyanophenyl)amino] [1,2,4]triazolo[1,5-a]pyridin-6-yl}benzamide]
